Source: US12201640B2, “19-nor C3,3-disubstituted C21-n-pyrazolyl steroids and methods of use thereof” (Sage Therapeutics, Inc., priority 2013, dated 2025)

Assays:
[1] = target: T1, GABAA receptor α1β2γ2 (Homo sapiens, UniProt P14867+P47870); assay: Patch clamp electrophysiology, Qpatch in Ltk cells; type: cell-based; conditions: 10 μM test article, GABA EC20 2 μM, read-out: GABA (α1β2γ2) Qpatch in Ltk, % efficacy at 10 μM
T1 construct: expressed in transfected cells
Method: Patch Clamp Electrophysiology of Recombinant α1β2γ2 and α4β3δ GABAA Receptors
Cellular electrophysiology is used to measure the pharmacological properties of our GABAA receptor modulators in heterologous cell systems. Each compound is tested for its ability to affect GABA mediated currents at a submaximal agonist dose (GABA EC20=2 μM). LTK cells are stably transfected with the α1β2γ2 subunits of the GABA receptor and CHO cells are transiently transfected with the α4β3δ subunits via the Lipofecatamine method. Cells were passaged at a confluence of about 50-80% and then seeded onto 35 mm sterile culture dishes containing 2 ml culture complete medium without antibiotics or antimycotics. Confluent clusters of cells are electrically coupled (Pritchett et al., Science, 1988, 242, 1306-1308.). Because responses in distant cells are not adequately voltage clamped and because of uncertainties about the extent of coupling (Verdoorn et al., Neuron 1990, 4, 919-928.), cells were cultivated at a density that enables the recording of single cells (without visible connections to other cells).
Whole cell currents were measured with HEKA EPC-10 amplifiers using PatchMaster software or by using the high throughput QPatch platform (Sophion). Bath solution for all experiments contained (in mM): NaCl 137 mM, KCl 4 mM, CaCl2 1.8 mM, MgCl2 1 mM, HEPES 10 mM, D-Glucose 10 mM, pH (NaOH) 7.4. In some cases 0.005% cremophor was also added. Intracellular (pipette) solution contained: KCl 130 mM, MgCl2 1 mM, Mg-ATP 5 mM, HEPES 10 mM, EGTA 5 mM, pH 7.2. During experiments, cells and solutions were maintained at room temperature (19° C.-30° C.). For manual patch clamp recordings, cell culture dishes were placed on the dish holder of the microscope and continuously perfused (1 ml/min) with bath solution. After formation of a Gigaohm seal between the patch electrodes and the cell (pipette resistance range: 2.5 MΩ-6.0 MΩ; seal resistance range: >1 GΩ) the cell membrane across the pipette tip was ruptured to assure electrical access to the cell interior (whole-cell patch-configuration). For experiments using the QPatch system, cells were transferred as suspension to the QPatch system in the bath solution and automated whole cell recordings were performed.
Cells were voltage clamped at a holding potential of −80 mV. For the analysis of test articles, GABA receptors were stimulated by 2 μM GABA after sequential pre-incubation of increasing concentrations of the test article. Pre-incubation duration was 30 s and the duration of the GABA stimulus was 2 s. Test articles were dissolved in DMSO to form stock solutions (10 mM). Test articles were diluted to 0.01, 0.1, 1, and 10 μM in bath solution. All concentrations of test articles were tested on each cell. The relative percentage potentiation was defined as the peak amplitude in response to GABA EC20 in the presence of the test article divided by the peak amplitude in response to GABA EC20 alone, multiplied by 100.

[2] = target: [35S]-TBPS binding, rat brain cortical membranes (GABA receptor complex); assay: Steroid inhibition of [35S]-TBPS binding; conditions: 3 nM [35S]-TBPS, 5 μM GABA
Method: Steroid Inhibition of TBPS Binding
[35S]-t-Butylbicyclophosphorothionate (TBPS) binding assays using rat brain cortical membranes in the presence of 5 μM GABA has been described (Gee et al, J. Pharmacol. Exp. Ther. 1987, 241, 346-353; Hawkinson et al, Mol. Pharmacol. 1994, 46, 977-985; Lewin, A. H et al., Mol. Pharmacol. 1989, 35, 189-194).
Briefly, cortices are rapidly removed following decapitation of carbon dioxide-anesthetized Sprague-Dawley rats (200-250 g). The cortices are homogenized in 10 volumes of ice-cold 0.32 M sucrose using a glass/teflon homogenizer and centrifuged at 1500×g for 10 min at 4° C. The resultant supernatants are centrifuged at 10,000×g for 20 min at 4° C. to obtain the P2 pellets. The P2 pellets are resuspended in 200 mM NaCl/50 mM Na-K phosphate pH 7.4 buffer and centrifuged at 10,000×g for 10 min at 4° C. This washing procedure is repeated twice and the pellets are resuspended in 10 volumes of buffer. Aliquots (100 μL) of the membrane suspensions are incubated with 3 nM [^35S]-TBPS and 5 μL aliquots of test drug dissolved in dimethyl sulfoxide (DMSO) (final 0.5%) in the presence of 5 μM GABA. The incubation is brought to a final volume of 1.0 mL with buffer. Nonspecific binding is determined in the presence of 2 μM unlabeled TBPS and ranged from 15 to 25%. Following a 90 min incubation at room temp, the assays are terminated by filtration through glass fiber filters (Schleicher and Schuell No. 32) using a cell harvester (Brandel) and rinsed three times with ice-cold buffer. Filter bound radioactivity is measured by liquid scintillation spectrometry. Non-linear curve fitting of the overall data for each drug averaged for each concentration is done using Prism (GraphPad). […] The concentration of test compound producing 50% inhibition (IC50) of specific binding and the maximal extent of inhibition (Imax) are determined for the individual experiments with the same model used for the overall data and then the means±SEM.s of the individual experiments are calculated.
Various compounds are or can be screened to determine their potential as modulators of [^35S]-TBPS binding in vitro. These assays are or can be performed in accordance with the above discussed procedures.

T1 sequence (P14867 28-456): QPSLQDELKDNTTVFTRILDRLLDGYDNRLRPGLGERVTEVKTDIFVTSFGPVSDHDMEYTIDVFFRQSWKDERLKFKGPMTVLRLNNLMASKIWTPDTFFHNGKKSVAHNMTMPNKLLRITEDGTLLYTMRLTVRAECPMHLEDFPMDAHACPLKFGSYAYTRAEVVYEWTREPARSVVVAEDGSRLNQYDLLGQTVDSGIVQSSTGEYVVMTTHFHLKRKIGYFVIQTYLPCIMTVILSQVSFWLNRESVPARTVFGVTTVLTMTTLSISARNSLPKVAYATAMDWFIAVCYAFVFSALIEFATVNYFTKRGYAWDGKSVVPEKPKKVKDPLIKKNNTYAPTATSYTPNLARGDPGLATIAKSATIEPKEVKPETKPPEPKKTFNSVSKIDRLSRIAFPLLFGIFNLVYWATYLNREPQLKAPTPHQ
T1 sequence (P47870 25-512 limits assumed): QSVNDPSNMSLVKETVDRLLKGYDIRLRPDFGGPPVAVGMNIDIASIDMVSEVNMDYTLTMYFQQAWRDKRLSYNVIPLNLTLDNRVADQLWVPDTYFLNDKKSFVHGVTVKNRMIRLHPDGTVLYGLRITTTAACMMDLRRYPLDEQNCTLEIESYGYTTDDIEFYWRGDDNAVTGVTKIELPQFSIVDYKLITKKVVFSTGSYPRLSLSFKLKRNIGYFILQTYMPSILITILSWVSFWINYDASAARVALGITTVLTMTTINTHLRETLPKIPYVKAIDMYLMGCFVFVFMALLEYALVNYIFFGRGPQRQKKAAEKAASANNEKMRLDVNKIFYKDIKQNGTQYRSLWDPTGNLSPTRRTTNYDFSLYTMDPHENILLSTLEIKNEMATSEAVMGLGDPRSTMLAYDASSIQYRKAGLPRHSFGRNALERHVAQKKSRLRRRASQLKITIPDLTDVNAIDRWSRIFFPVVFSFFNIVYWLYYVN
T1 sequence (P18507 40-475 partner): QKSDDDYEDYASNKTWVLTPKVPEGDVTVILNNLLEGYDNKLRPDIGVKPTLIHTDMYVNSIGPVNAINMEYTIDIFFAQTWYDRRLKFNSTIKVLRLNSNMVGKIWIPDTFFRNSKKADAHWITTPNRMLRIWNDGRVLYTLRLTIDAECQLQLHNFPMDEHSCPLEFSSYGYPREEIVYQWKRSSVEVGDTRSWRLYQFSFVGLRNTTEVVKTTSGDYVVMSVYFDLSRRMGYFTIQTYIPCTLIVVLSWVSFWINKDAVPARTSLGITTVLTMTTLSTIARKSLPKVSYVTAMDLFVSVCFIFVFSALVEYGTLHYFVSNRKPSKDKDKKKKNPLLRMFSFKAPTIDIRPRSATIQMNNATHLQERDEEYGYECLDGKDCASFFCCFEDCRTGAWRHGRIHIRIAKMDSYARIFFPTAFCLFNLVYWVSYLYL

SMILES | Emax at 10 µM [1] [%] | IC50 [2] [µM]
CCOC[C@@]1(O)CC[C@H]2[C@@H](CC[C@@H]3[C@@H]2CC[C@]2(C)[C@@H](C(=O)Cn4cc(C#N)cn4)CC[C@@H]32)C1 [SB-9] | 100 to 500 | –
CCOC(=O)c1cnn(CC(=O)[C@H]2CC[C@H]3[C@@H]4CC[C@@H]5C[C@](C)(O)CC[C@@H]5[C@H]4CC[C@]23C)c1 [SA-3] | > 500 | < 0.01
CC[C@@]1(O)CC[C@H]2[C@H](CC[C@@H]3[C@@H]2CC[C@]2(C)[C@@H](C(=O)Cn4cccn4)CC[C@@H]32)C1 [SA-35] | 100 to 500 | 0.1 to 0.5
Cc1cnn(CC(=O)[C@H]2CC[C@H]3[C@@H]4C[C@@H](F)[C@H]5C[C@](C)(O)CC[C@@H]5[C@H]4CC[C@]23C)c1 [SB-12] | 100 to 500 | –
C[C@]12CC[C@H]3[C@@H](CC[C@@H]4C[C@@](O)(C(F)F)CC[C@@H]43)[C@@H]1CC[C@@H]2C(=O)Cn1cc(S(C)(=O)=O)cn1 [SA-29] | – | ≥ 0.5
C[C@]12CC[C@H]3[C@@H](CC[C@@H]4C[C@@](O)(CF)CC[C@@H]43)[C@@H]1CC[C@@H]2C(=O)Cn1cccn1 [SA-31] | 100 to 500 | 0.1 to 0.5
C[S+]([O-])c1cnn(CC(=O)[C@H]2CC[C@H]3[C@@H]4CC[C@@H]5C[C@](C)(O)CC[C@@H]5[C@H]4CC[C@]23C)c1 (stereo partly drawn) [SA-20] | 100 to 500 | –
C[C@]12CC[C@H]3[C@@H](CC[C@@H]4C[C@@](O)(C(F)F)CC[C@@H]43)[C@@H]1CC[C@@H]2C(=O)Cn1cccn1 [SA-27] | 100 to 500 | 0.1 to 0.5
CCOC[C@@]1(O)CC[C@H]2[C@@H](CC[C@@H]3[C@@H]2CC[C@]2(C)[C@@H](C(=O)Cn4cccn4)CC[C@@H]32)C1 [SB-8] | – | ≥ 0.5
C[C@@H]1C[C@H]2[C@@H](CC[C@@H]3[C@@H]2CC[C@]2(C)[C@@H](C(=O)Cn4cccn4)CC[C@@H]32)C[C@]1(C)O [SB-18] | 100 to 500 | 0.1 to 0.5
COC[C@@]1(O)CC[C@H]2[C@H](CC[C@@H]3[C@@H]2CC[C@]2(C)[C@@H](C(=O)Cn4cccn4)CC[C@@H]32)C1 [SA-23] | > 500 | 0.1 to 0.5
C[C@]12CC[C@H]3[C@@H](CC[C@@H]4C[C@@](O)(C(F)F)CC[C@@H]43)[C@@H]1CC[C@@H]2C(=O)Cn1cc(C#N)cn1 [SA-28] | > 500 | –
CSc1cnn(CC(=O)[C@H]2CC[C@H]3[C@@H]4CC[C@@H]5C[C@](C)(O)CC[C@@H]5[C@H]4CC[C@]23C)c1 [SA-18] | > 500 | –
Cc1cn(CC(=O)[C@H]2CC[C@H]3[C@@H]4CC[C@@H]5C[C@](C)(O)CC[C@@H]5[C@H]4CC[C@]23C)nc1C [SA-15] | 100 to 500 | –
CC[C@@]1(O)CC[C@H]2[C@@H](CC[C@@H]3[C@@H]2CC[C@]2(C)[C@@H](C(=O)Cn4cccn4)CC[C@@H]32)C1 [SB-20] | – | ≥ 0.5
C[C@]12CC[C@H]3[C@@H](CC[C@H]4C[C@@](O)(CF)CC[C@@H]43)[C@@H]1CC[C@@H]2C(=O)Cn1cccn1 [SB-23] | 100 to 500 | 0.1 to 0.5

SMILES | Emax at 10 µM [1] [%] | IC50 [2] [µM]
C[C@@]1(O)CC[C@H]2[C@@H](CC[C@@H]3[C@@H]2CC[C@]2(C)[C@@H](C(=O)Cn4cc(S(C)(=O)=O)cn4)CC[C@@H]32)C1 [SB-3] | – | ≥ 0.5
Cc1cc(C)n(CC(=O)[C@H]2CC[C@H]3[C@@H]4CC[C@@H]5C[C@](C)(O)CC[C@@H]5[C@H]4CC[C@]23C)n1 [SA-12] | 100 to 500 | 0.01 to 0.05
COC[C@@]1(O)CC[C@H]2[C@@H](CC[C@@H]3[C@@H]2CC[C@]2(C)[C@@H](C(=O)Cn4cc(S(C)(=O)=O)cn4)CC[C@@H]32)C1 [SB-7] | – | ≥ 0.5
COC[C@@]1(O)CC[C@H]2[C@@H](CC[C@@H]3[C@@H]2CC[C@]2(C)[C@@H](C(=O)Cn4cccn4)CC[C@@H]32)C1 [SB-4] | > 500 | 0.1 to 0.5
CC[C@@]1(O)CC[C@H]2[C@@H](CC[C@@H]3[C@@H]2CC[C@]2(C)[C@@H](C(=O)Cn4cc(C#N)cn4)CC[C@@H]32)C1 [SB-21] | 100 to 500 | –
CO[C@H]1C[C@H]2[C@@H](CC[C@@H]3[C@@H]2CC[C@]2(C)[C@@H](C(=O)Cn4cccn4)CC[C@@H]32)C[C@]1(C)O [SB-19] | > 500 | 0.1 to 0.5
C[C@@]1(O)CC[C@@H]2[C@H]3CC[C@]4(C)[C@@H](C(=O)Cn5ccc(C#N)n5)CC[C@H]4[C@@H]3C[C@@H](F)[C@H]2C1 [SB-13] | 100 to 500 | –
CSc1cnn(CC(=O)[C@H]2CC[C@H]3[C@@H]4C[C@@H](F)[C@H]5C[C@](C)(O)CC[C@@H]5[C@H]4CC[C@]23C)c1 [SB-14] | 100 to 500 | –
C[C@@]1(O)CC[C@H]2[C@H](CC[C@@H]3[C@@H]2CC[C@]2(C)[C@@H](C(=O)Cn4cc(C(F)(F)F)cn4)CC[C@@H]32)C1 [SA-14] | 100 to 500 | –
CCc1cnn(CC(=O)[C@H]2CC[C@H]3[C@@H]4CC[C@@H]5C[C@](C)(O)CC[C@@H]5[C@H]4CC[C@]23C)c1 [SA-16] | > 500 | –
CC[C@@]1(O)CC[C@H]2[C@H](CC[C@@H]3[C@@H]2CC[C@]2(C)[C@@H](C(=O)Cn4cc(C#N)cn4)CC[C@@H]32)C1 [SA-30] | 100 to 500 | –
C[C@]12CC[C@H]3[C@@H](CC[C@@H]4C[C@@](O)(CF)CC[C@@H]43)[C@@H]1CC[C@@H]2C(=O)Cn1cc(S(C)(=O)=O)cn1 [SA-33] | – | ≥ 0.5
C[C@@]1(O)CC[C@@H]2[C@H]3CC[C@]4(C)[C@@H](C(=O)Cn5cccn5)CC[C@H]4[C@@H]3C[C@@H](F)[C@@H]2C1 [SA-25] | – | ≥ 0.5
C[C@@]1(O)CC[C@H]2[C@H](CC[C@@H]3[C@@H]2CC[C@]2(C)[C@@H](C(=O)Cn4cc(F)cn4)CC[C@@H]32)C1 [SA-21] | > 500 | –
C[C@]12CC[C@H]3[C@@H](CC[C@H]4C[C@@](O)(CF)CC[C@@H]43)[C@@H]1CC[C@@H]2C(=O)Cn1cc(C#N)cn1 [SB-22] | > 500 | 0.1 to 0.5
